Measured values: patent US20230085307A1, “PYRIDAZINONE COMPOUND AND HERBICIDE” (NISSAN CHEMICAL CORPORATION, priority 2019, published 2023)

Key:
late watergrass = assay: Test Example 2: herbicidal activity, application during weed generation under submerged conditions (Table 17, symbol A); format: in vivo, late watergrass (Echinochloa oryzicola); conditions: AAH 320 g/ha; application during weed generation, submerged conditions
Method in brief: (§1)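 Effect on each weed is rated three weeks post-treatment, using the same scoring criteria as the preceding test. Plants grow from mixed-sown seed in flooded alluvial soil (4 cm water) at 25° C. to 30° C., and are treated at one to two leaves with diluted emulsion dropped onto the water.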

Japanese bulrush = assay: Test Example 2: herbicidal activity, application during weed generation under submerged conditions (Table 17, symbol B); format: in vivo, Japanese bulrush (Schoenoplectus juncoides); conditions: AAH 320 g/ha; application during weed generation, submerged conditions
Method in brief: as §1

oval-leafed pondweed = assay: Test Example 2: herbicidal activity, application during weed generation under submerged conditions (Table 17, symbol C); format: in vivo, oval-leafed pondweed (Monochoria vaginalis); conditions: AAH 320 g/ha; application during weed generation, submerged conditions
Method in brief: as §1

barnyard grass [1] = assay: Test Example 3: herbicidal effect by foliage application, Wagner pot (Table 18, symbol H); format: in vivo, barnyard grass (Echinochloa crus-galli); conditions: 320 g/ha
Method in brief: (§2)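 Plants were sown in alluvial soil held under 0.1–0.5 cm standing water and grown 14 days in a greenhouse at 25–30 °C. An emulsifiable formulation, water-diluted to the set dose, was then sprayed onto the foliage, and effects were scored three weeks later using previously defined criteria.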

Chinese sprangletop = assay: Test Example 3: herbicidal effect by foliage application, Wagner pot (Table 18, symbol D); format: in vivo, chinese sprangletop (Leptochloa chinensis); conditions: 320 g/ha
Method in brief: as §2

rice flat sedge = assay: Test Example 3: herbicidal effect by foliage application, Wagner pot (Table 18, symbol E); format: in vivo, rice flat sedge (Cyperus iria); conditions: 320 g/ha
Method in brief: as §2

southern crabgrass [2] = assay: Test Example 4: herbicidal effect by soil treatment (Table 19, symbol F); format: in vivo, southern crabgrass (Digitaria ciliaris); conditions: 320 g/ha
Method in brief: (§3)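 In this soil treatment, the formulated compound reached the seeds only through the soil: seeds were buried about 1.5 cm deep in sterilized diluvial soil, then the diluted emulsion was sprayed over the surface. After three weeks at 25° C. to 30° C. in a greenhouse, effects were graded on criteria from an earlier test.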

green foxtail [3] = assay: Test Example 4: herbicidal effect by soil treatment (Table 19, symbol G); format: in vivo, green foxtail (Setaria viridis); conditions: 320 g/ha
Method in brief: as §3

barnyard grass [4] = assay: Test Example 4: herbicidal effect by soil treatment (Table 19, symbol H); format: in vivo, barnyard grass (Echinochloa crus-galli); conditions: 320 g/ha
Method in brief: as §3

wild oat [5] = assay: Test Example 4: herbicidal effect by soil treatment (Table 19, symbol I); format: in vivo, wild oat (Avena fatua); conditions: 320 g/ha
Method in brief: as §3

blackgrass [6] = assay: Test Example 4: herbicidal effect by soil treatment (Table 19, symbol J); format: in vivo, blackgrass (Alopecurus myosuroides); conditions: 320 g/ha
Method in brief: as §3

Italian ryegrass [7] = assay: Test Example 4: herbicidal effect by soil treatment (Table 19, symbol K); format: in vivo, Italian ryegrass (Lolium multiflorum); conditions: 320 g/ha
Method in brief: as §3

windgrass [8] = assay: Test Example 4: herbicidal effect by soil treatment (Table 19, symbol L); format: in vivo, windgrass (Apera spica-venti); conditions: 320 g/ha
Method in brief: as §3

velvetleaf [9] = assay: Test Example 4: herbicidal effect by soil treatment (Table 19, symbol M); format: in vivo, velvetleaf (Abutilon theophrasti); conditions: 320 g/ha
Method in brief: as §3

redroot pigweed [10] = assay: Test Example 4: herbicidal effect by soil treatment (Table 19, symbol N); format: in vivo, redroot pigweed (Amaranthus retroflexus); conditions: 320 g/ha
Method in brief: as §3

lambsquarters [11] = assay: Test Example 4: herbicidal effect by soil treatment (Table 19, symbol O); format: in vivo, lambsquarters (Chenopodium album); conditions: 320 g/ha
Method in brief: as §3

chickweed [12] = assay: Test Example 4: herbicidal effect by soil treatment (Table 19, symbol P); format: in vivo, common chickweed (Stellaria media); conditions: 320 g/ha
Method in brief: as §3

false cleavers [13] = assay: Test Example 4: herbicidal effect by soil treatment (Table 19, symbol Q); format: in vivo, false cleavers (Galium spurium); conditions: 320 g/ha
Method in brief: as §3

persian speedwell [14] = assay: Test Example 4: herbicidal effect by soil treatment (Table 19, symbol R); format: in vivo, Persian speedwell (Veronica persica); conditions: 320 g/ha
Method in brief: as §3

southern crabgrass [15] = assay: Test Example 5: herbicidal effect by foliage application, plastic box (Table 20, symbol F); format: in vivo, southern crabgrass (Digitaria ciliaris); conditions: foliage application, 320 g/ha, evaluated three weeks after application
Method in brief: (§4)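 Plants were sown into sterilized diluvial soil under about 1.5 cm cover and kept in a greenhouse at 25° C. to 30° C. Fourteen days on, foliage received an even spray of the diluted emulsion. Herbicidal or crop effect was judged three weeks afterwards.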

green foxtail [16] = assay: Test Example 5: herbicidal effect by foliage application, plastic box (Table 20, symbol G); format: in vivo, green foxtail (Setaria viridis); conditions: foliage application, 320 g/ha, evaluated three weeks after application
Method in brief: as §4

barnyard grass [17] = assay: Test Example 5: herbicidal effect by foliage application, plastic box (Table 20, symbol H); format: in vivo, barnyard grass (Echinochloa crus-galli); conditions: foliage application, 320 g/ha, evaluated three weeks after application
Method in brief: as §4

wild oat [18] = assay: Test Example 5: herbicidal effect by foliage application, plastic box (Table 20, symbol I); format: in vivo, wild oat (Avena fatua); conditions: foliage application, 320 g/ha, evaluated three weeks after application
Method in brief: as §4

blackgrass [19] = assay: Test Example 5: herbicidal effect by foliage application, plastic box (Table 20, symbol J); format: in vivo, blackgrass (Alopecurus myosuroides); conditions: foliage application, 320 g/ha, evaluated three weeks after application
Method in brief: as §4

Italian ryegrass [20] = assay: Test Example 5: herbicidal effect by foliage application, plastic box (Table 20, symbol K); format: in vivo, Italian ryegrass (Lolium multiflorum); conditions: foliage application, 320 g/ha, evaluated three weeks after application
Method in brief: as §4

windgrass [21] = assay: Test Example 5: herbicidal effect by foliage application, plastic box (Table 20, symbol L); format: in vivo, windgrass (Apera spica-venti); conditions: foliage application, 320 g/ha, evaluated three weeks after application
Method in brief: as §4

velvetleaf [22] = assay: Test Example 5: herbicidal effect by foliage application, plastic box (Table 20, symbol M); format: in vivo, velvetleaf (Abutilon theophrasti); conditions: foliage application, 320 g/ha, evaluated three weeks after application
Method in brief: as §4

redroot pigweed [23] = assay: Test Example 5: herbicidal effect by foliage application, plastic box (Table 20, symbol N); format: in vivo, redroot pigweed (Amaranthus retroflexus); conditions: foliage application, 320 g/ha, evaluated three weeks after application
Method in brief: as §4

lambsquarters [24] = assay: Test Example 5: herbicidal effect by foliage application, plastic box (Table 20, symbol O); format: in vivo, lambsquarters (Chenopodium album); conditions: foliage application, 320 g/ha, evaluated three weeks after application
Method in brief: as §4

chickweed [25] = assay: Test Example 5: herbicidal effect by foliage application, plastic box (Table 20, symbol P); format: in vivo, common chickweed (Stellaria media); conditions: foliage application, 320 g/ha, evaluated three weeks after application
Method in brief: as §4

false cleavers [26] = assay: Test Example 5: herbicidal effect by foliage application, plastic box (Table 20, symbol Q); format: in vivo, false cleavers (Galium spurium); conditions: foliage application, 320 g/ha, evaluated three weeks after application
Method in brief: as §4

persian speedwell [27] = assay: Test Example 5: herbicidal effect by foliage application, plastic box (Table 20, symbol R); format: in vivo, Persian speedwell (Veronica persica); conditions: foliage application, 320 g/ha, evaluated three weeks after application
Method in brief: as §4

CCCC(=O)Oc1c(C)nn(C)c(=O)c1-c1c(-c2ccc3c(c2)OCCO3)sc2ccc(F)cc12 [2-093]
herbicidal effect rating, A: late watergrass (late watergrass): 3 (Herbicidal rate of 40% or more and less than 70%) | herbicidal effect rating, B: Japanese bulrush (Japanese bulrush): 5 (Herbicidal rate of 90% or more (almost completely withered)) | herbicidal effect rating, C: oval-leafed pondweed (oval-leafed pondweed): 5 (Herbicidal rate of 90% or more (almost completely withered)) | herbicidal effect on H (barnyard grass), rating 0-5 (barnyard grass [1]): 5 (Herbicidal rate of 90% or more (almost completely withered)) | herbicidal effect on D (Chinese sprangletop), rating 0-5 (Chinese sprangletop): 2 (Herbicidal rate of 20% or more and less than 40%) | herbicidal effect on E (rice flat sedge), rating 0-5 (rice flat sedge): 5 (Herbicidal rate of 90% or more (almost completely withered)) | herbicidal effect rating, F: southern crabgrass (southern crabgrass [2]): 3 (Herbicidal rate of 40% or more and less than 70%) | herbicidal effect rating, G: green foxtail (green foxtail [3]): 3 (Herbicidal rate of 40% or more and less than 70%) | herbicidal effect rating, H: barnyard grass (barnyard grass [4]): 3 (Herbicidal rate of 40% or more and less than 70%) | herbicidal effect rating, I: wild oat (wild oat [5]): 0 (Herbicidal rate of 5% or less (almost no effect)) | herbicidal effect rating, J: blackgrass (blackgrass [6]): 0 (Herbicidal rate of 5% or less (almost no effect)) | herbicidal effect rating, K: Italian ryegrass (Italian ryegrass [7]): 0 (Herbicidal rate of 5% or less (almost no effect)) | herbicidal effect rating, L: windgrass (windgrass [8]): 0 (Herbicidal rate of 5% or less (almost no effect)) | herbicidal effect rating, M: velvetleaf (velvetleaf [9]): 5 (Herbicidal rate of 90% or more (almost completely withered)) | herbicidal effect rating, N: redroot pigweed (redroot pigweed [10]): 5 (Herbicidal rate of 90% or more (almost completely withered)) | herbicidal effect rating, O: lambsquarters (lambsquarters [11]): 5 (Herbicidal rate of 90% or more (almost completely withered)) | herbicidal effect rating, P: chickweed (chickweed [12]): 4 (Herbicidal rate of 70% or more and less than 90%) | herbicidal effect rating, Q: false cleavers (false cleavers [13]): 3 (Herbicidal rate of 40% or more and less than 70%) | herbicidal effect rating, R: persian speedwell (persian speedwell [14]): 5 (Herbicidal rate of 90% or more (almost completely withered)) | herbicidal effect on F: southern crabgrass (southern crabgrass [15]): 3 (Herbicidal rate of 40% or more and less than 70%) | herbicidal effect on G: green foxtail (green foxtail [16]): 3 (Herbicidal rate of 40% or more and less than 70%) | herbicidal effect on H: barnyard grass (barnyard grass [17]): 3 (Herbicidal rate of 40% or more and less than 70%) | herbicidal effect on I: wild oat (wild oat [18]): 0 (Herbicidal rate of 5% or less (almost no effect)) | herbicidal effect on J: blackgrass (blackgrass [19]): 0 (Herbicidal rate of 5% or less (almost no effect)) | herbicidal effect on K: Italian ryegrass (Italian ryegrass [20]): 0 (Herbicidal rate of 5% or less (almost no effect)) | herbicidal effect on L: windgrass (windgrass [21]): 0 (Herbicidal rate of 5% or less (almost no effect)) | herbicidal effect on M: velvetleaf (velvetleaf [22]): 5 (Herbicidal rate of 90% or more (almost completely withered)) | herbicidal effect on N: redroot pigweed (redroot pigweed [23]): 5 (Herbicidal rate of 90% or more (almost completely withered)) | herbicidal effect on O: lambsquarters (lambsquarters [24]): 5 (Herbicidal rate of 90% or more (almost completely withered)) | herbicidal effect on P: chickweed (chickweed [25]): 5 (Herbicidal rate of 90% or more (almost completely withered)) | herbicidal effect on Q: false cleavers (false cleavers [26]): 4 (Herbicidal rate of 70% or more and less than 90%) | herbicidal effect on R: persian speedwell (persian speedwell [27]): 5 (Herbicidal rate of 90% or more (almost completely withered))

COc1ccccc1-c1sc2ccc(SC(F)(F)F)cc2c1-c1c(OC)c(C)nn(C)c1=O [Compound No. 2-379, 5-methoxy-4-(2-(2-methoxyphenyl)-5-((trifluoromethyl)thio)benzo[b]thiophen-3-yl)-2,6-di methylpyridazin-3(2H)-one]
melting point: 152 to 155 °C
